Legend:
[1] = system: HCV 1a genotype replicon (strain H77, Huh-1a7 cells); assay: HCV replicon assay, qRT-PCR, genotype 1a replicon cell line (Huh-1a7); assay type: cell-based; settings: HCV genotype 1a replicon, HCV RNA by qRT-PCR normalized to GAPDH RNA
Text: (§1) HCV replicon cell lines (kindly provided by R. Bartenschlager) isolated from colonies as described by Lohman et al. (Lohman et al. (1999) Science 285: 110-113, expressly incorporated by reference in its entirety) and used for all experiments. One of the HCV replicon cell lines (strain Con1, genotype 1b) has the nucleic acid sequence set forth in EMBL Accession No.: AJ242651, the coding sequence of which is from nucleotides 1801 to 8406. Another replicon cell line (strain H77, genotype 1a) was constructed as described by Yi et al. (Yi et al. (2004) Journal of Virology 78(15):7904-15). […]
(§2) EC50 values of single agent compounds were determined by HCV RNA detection using quantitative RT-PCR, according to the manufacturer's instructions, with a TAQMAN® One-Step RT-PCR Master Mix Reagents Kit (Cat# AB 4309169, Applied Biosystems) on an ABI Model 7500 thermocycler. EC50 values of combinations are similarly determined by HCV RNA detection using quantitative RT-PCR. The TAQMAN primers to use for detecting and quantifying HCV RNA obtained from Integrated DNA Technologies. HCV RNA is normalized to GAPDH RNA levels in drug-treated cells, which is detected and quantified using the Human GAPDH Endogenous Control Mix (Applied Biosystems, AB 4310884E). […] Chemical agent cytotoxicity is evaluated using an MTS assay according to the manufacturer's directions (Promega). […]

[2] = system: HCV 1b genotype replicon (strain Con1, SGR 11-7 cells); assay: HCV replicon assay, qRT-PCR, genotype 1b replicon cell line (SGR 11-7); assay type: cell-based; settings: HCV genotype 1b replicon, HCV RNA by qRT-PCR normalized to GAPDH RNA
Text: as §1, §2

| Molecule | EC50 ([1]; Hepatitis C virus) [nM] | EC50 ([2]; Hepatitis C virus) [nM] | EC50 [1] [nM] | EC50 [2] [nM] |
| --- | --- | --- | --- | --- |
| CC(C)CCCCN1CCOCC1 [Example 1] | < 200 | < 200 | – | – |
| Allisporivir | – | – | < 200 | < 200 |
